According to patent publication US20060063702A1, “Neuromedin U 2 receptor agonists and uses thereof” (priority 2004, published 2006):
“Also recorded” adds a separate entry of the source. Where no end group is shown, it is not given here.

Columns and labels:
human NMU-2R [1] = target: T1, human NMU-2R (Homo sapiens, UniProt Q9GZQ4); assay: NMU-2R reporter gene (luciferase) assay in HEK-293/NMU-2R/3MCS/Luci cells; format: cell-based; details: for activation of NMU-2R, expression of reporter gene luciferase: in the presence of forskolin 5 μmol/L
T1 construct: expressed in transfected cells
T1 sequence (Q9GZQ4 whole entry): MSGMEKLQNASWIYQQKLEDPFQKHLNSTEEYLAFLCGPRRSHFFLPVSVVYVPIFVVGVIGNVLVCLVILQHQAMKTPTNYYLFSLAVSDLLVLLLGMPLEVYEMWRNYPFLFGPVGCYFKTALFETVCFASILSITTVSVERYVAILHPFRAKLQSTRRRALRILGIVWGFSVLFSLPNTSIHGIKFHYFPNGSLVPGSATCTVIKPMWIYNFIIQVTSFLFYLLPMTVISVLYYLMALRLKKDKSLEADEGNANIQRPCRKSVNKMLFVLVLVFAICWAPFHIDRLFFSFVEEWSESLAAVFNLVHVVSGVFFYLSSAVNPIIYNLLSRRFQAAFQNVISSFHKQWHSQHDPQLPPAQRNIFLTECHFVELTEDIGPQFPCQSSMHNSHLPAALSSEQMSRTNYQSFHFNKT
Description: Establishment of stable cell line: HEK-293 cells were maintained in DMEM with 10% FBS (Gibco) and 1% non-essential amino acid at 37° C. […] Twenty-four hours after transfection, cell culture medium was replaced with fresh medium containing G418 at final concentration of 800 mg/L. Stable cell line was generated using limited dilution based on the luciferase activity in the presence of NmU and forskolin (5 μmol/L). The stable cell line was named HEK-293/NMU-2R/3MCS/Luci cells. Luciferase assay and screening for NMU-2R agonists: The luciferase activity was measured according to the protocol from Promega. Briefly, 100 μL of HEK-293/NMU-2R/3MCS/Luci cells at 4×10^4 cells/mL were added into each well of white 96 -well plate (flat, clear bottom, Costar). The cells were maintained in DMEM containing 10% FBS (Gibco) and 1% non-essential amino acid, and incubated at 37° C., 5% CO2 overnight. […] Finally, 110 μL of luciferase substrate Bright GloTM (Promega) was added into each well. Luciferase activity was measured using […] (Molecular Device).

other GPCRs = assay: Specificity assay in more than twenty other GPCR stable cell lines; format: cell-based
Description: Several stable cell lines were generated to examine the specificity of the compounds. First, the activity of the compounds in cell line expressing the reporter gene alone were tested. Since the reporter gene cell line was not transfected with NMU-2R expression vector, compounds that can activate the reporter gene expression in this cell line were not NMU-2R agonists. In addition, the compounds in cell lines expressing other GPCRs were tested. More than twenty different GPCR stable cell lines were generated for the specificity assay.

NMU-1R = target: T2, NMU-1R (Homo sapiens, UniProt Q9HB89); assay: Activity for NMU-1R; format: cell-based
T2 sequence (Q9HB89 1-426): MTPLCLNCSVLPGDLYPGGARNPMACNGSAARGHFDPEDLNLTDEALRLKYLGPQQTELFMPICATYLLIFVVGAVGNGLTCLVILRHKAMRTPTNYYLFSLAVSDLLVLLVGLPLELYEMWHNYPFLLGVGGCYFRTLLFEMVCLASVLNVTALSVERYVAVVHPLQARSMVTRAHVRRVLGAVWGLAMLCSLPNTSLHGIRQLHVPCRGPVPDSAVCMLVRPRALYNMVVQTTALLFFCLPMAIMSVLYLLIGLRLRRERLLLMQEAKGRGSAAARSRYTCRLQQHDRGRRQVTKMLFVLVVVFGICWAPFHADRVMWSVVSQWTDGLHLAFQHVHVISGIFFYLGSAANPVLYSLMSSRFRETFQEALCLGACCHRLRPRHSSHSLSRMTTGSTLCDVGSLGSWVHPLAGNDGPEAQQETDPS

human NMU-2R [2] = target: T1, human NMU-2R; details: literature refs 5-7, 15-20; cited from earlier work

Row | activity for NMU-1R (NMU-1R) | induction of reporter gene expression (human NMU-2R [1]; NmU alone, without forskolin) | Compound | activation of NMU-2R, expression of reporter gene luciferase (human NMU-2R [1]) | effect on other GPCRs (other GPCRs) | potency of receptor activation (human NMU-2R [2])
1 | – | – | COc1ccc(-c2oc3c(CC=C(C)C)c(O[C@@H]4O[C@H](CO)[C@@H](O)[C@H](O)[C@H]4O)cc(O)c3c(=O)c2O[C@@H]2O[C@@H](C)[C@H](O)[C@@H](O)[C@H]2O)cc1 [Icariin] | potential NMU-2R agonists | – | –
2 | – | – | COc1ccc([C@@H]2CC(=O)c3c(O)cc(O[C@@H]4O[C@H](CO[C@@H]5O[C@@H](C)[C@H](O)[C@@H](O)[C@H]5O)[C@@H](O)[C@H](O)[C@H]4O)cc3O2)cc1O [Hesperidin] | potential NMU-2R agonists | – | –
3 | no activity | – | C[C@@H]1O[C@@H](OC[C@H]2O[C@@H](Oc3c(-c4ccc(O)c(O)c4)oc4cc(O)cc(O)c4c3=O)[C@H](O)[C@@H](O)[C@@H]2O)[C@H](O)[C@H](O)[C@H]1O [Rutin] | – | no activity | –
4 | – | only slightly induced | Neuromedin U (FRVDEEFQSPFASQSRGYFLFRPRN; ends and bridges not checked; UniProt P48645 142-166, looked up) [NmU, peptide hormone, natural ligand for NMU-2R] | best response; also recorded: significantly increased | – | nanomolar range
